Experimental data from patent US7939074B2, “Combination of an anti-EP-CAM antibody with a chemotherapeutic agent” (GlaxoSmithKline LLC, priority 1999, dated 2011).
Counter-ions that a name gives are not always drawn.

Key:
[1] = system: Human colon adenocarcinoma (HT-29) tumours; assay: Localization of 177Lu-labelled humanised 323/A3 IgG4cys-TMT to HT-29 xenografts after drug pre-treatment; assay type: in vivo, female CD-1 nude mice; conditions: HT-29 xenograft mice; NAVELBINE 28 mg/kg i.v. or 5-FU 20 mg/kg i.p. on days 1 and 5; labelled antibody on day 6
Description: Human colon adenocarcinoma (HT-29) tumours were initiated by subcutaneous implantation into female CD-1 nude mice (Charles River). When the tumours reached 200-300 mg, animals were divided into groups of five. NAVELBINE® was injected intravenously at a dosage of 28 mg/kg on days 1 and 5. A control group was dosed with 5-fluorouracil (5-FU) intraperitoneally at 20 mg/kg on days 1 and 5. On day 6, humanised 323/A3 IgG4cys-TMT (a humanized monoclonal antibody chelator conjugate with specificity for the Ep-CAM antigen) was labelled with lutetium-177 and injected intravenously via the lateral tail vein. Each mouse received […]/2.09 μCi lutetium-177/0.2 ml injection. Blood, spleen, liver, lung, kidney, femur and tumour were harvested on days 1, 3 and 5 post-antibody for direct gamma counting (see FIG. 5 for results).

[2] = system: Ep-CAM antigen on adenocarcinoma cells; assay: Quantification of Ep-CAM antigen expression by binding of fluorescein-conjugated 323/A3 versus calibrated microbead standards; assay type: cell-based, human; conditions: adenocarcinoma cells exposed to drugs, Example 2 / FIG. 2, versus media
Description: (§1) Populations of PC-3 prostatic adenocarcinoma cells were evaluated for distribution in G0/G1, S, and G2/M phases of the cell cycle as well as Ep-CAM expression. Cells were gently trypsinized and mechanically detached from the culture flasks and resuspended in calcium and magnesium-free phosphate-buffered saline containing bovine serum albumin and NaN3. Exactly 2×10^5 cells were stained with FITC-323/A3 murine IgG antibody or FITC-murine IgG (control). Cells were fixed with cold paraformaldehyde, then permeabilized for DNA staining with Tween-20. Cellular DNA was stained with propidium iodide and RNase A. Listmode data were acquired on a FACScan flow cytometer (Becton Dickinson Immunocytometry Systems) equipped with a 488 nm laser using Cell Fit software. Cell cycle analysis was done using SOBR modelling (where possible, otherwise manual estimations were employed) on Cell Fit. Ep-CAM antigen expression as detected by 323/A3 binding was evaluated separately using histogram analysis in WINLIST™ (Verity Software House).
(§2) Subconfluent cells were exposed to NAVELBINE® or TAXOL® for up to 24 hours, then washed and exposed to cisplatin or carboplatin, respectively, overnight. Cells were exposed to 5FU for 24 hours, and for 2-5 days to the interferons. Cells were washed and cultured for another 2-5 days prior to analysis for antigen expression and cell cycle status as described in Example 1. Antigen expression was quantified by comparison of the binding of fluorescein-conjugated 323/A3 to cultured cells with binding to calibrated microbead standards.
The expression of Ep-CAM antigen was quantified on a variety of adenocarcinoma cell lines as well as primary cultures of normal human cells. Cultured subconfluent cells were exposed sequentially to media, or to 30 nM NAVELBINE® followed by 5 μM cisplatin (NVB+CDDP), or to 80 nM TAXOL® followed by 100 μM carboplatin (TAX+CPBDA). Cells were washed with media and cultured for another 2-5 days prior to analysis for antigen expression as described in Examples 1 and 2.

[3] = system: adenocarcinoma cells; assay: Cell cycle analysis (propidium iodide flow cytometry) of drug-exposed adenocarcinoma cell lines; assay type: cell-based, human; conditions: adenocarcinoma cell line; NVB 30 nM then CDDP 5 μM; TAX 80 nM then CPBDA 100 μM; interferons 100 U/ml; media control 6.3%
Description: as §1, §2

[4] = system: HT29 adenocarcinoma cells; assay: Cell cycle arrest in drug-treated HT29 cells; assay type: cell-based, human; conditions: HT29 cells cultured with drugs; control cells 21%
Description: as §1, with “Cellular DNA was stained with propidium iodide and RNase A. Listmode data were acquired on a FACScan flow cytometer (Becton Dickinson Immunocytometry Systems) equipped with a 488 nm laser using Cell Fit software. Cell cycle analysis was done using SOBR modelling (where possible, otherwise manual estimations were employed) on Cell Fit.” left out
Subconfluent cells were exposed to NAVELBINE® or TAXOL® for up to 24 hours, then washed and exposed to cisplatin or carboplatin, respectively, overnight. […] Antigen expression was quantified by comparison of the binding of fluorescein-conjugated 323/A3 to cultured cells with binding to calibrated microbead standards.
The binding of PANOREX®, a related murine monoclonal antibody with specificity for the Ep-CAM antigen, was evaluated after a 15 minute incubation with HT29 adenocarcinoma cells which had been cultured with NAVELBINE® plus Cisplatin or with TAXOL® as previously described. […]

[5] = system: HT29 adenocarcinoma cells; assay: Binding of PANOREX to drug-treated HT29 cells; assay type: cell-based, human; conditions: 15 minute incubation with PANOREX after culture with drugs
Description: as §2
The binding of PANOREX®, a related murine monoclonal antibody with specificity for the Ep-CAM antigen, was evaluated after a 15 minute incubation with HT29 adenocarcinoma cells which had been cultured with NAVELBINE® plus Cisplatin or with TAXOL® as previously described. A significant increase (34%) in antibody binding was seen on the cells treated with NAVELBINE® plus Cisplatin; 82% of these cells were arrested in S or G2/M cycle phase compared to 21% of the control cells.

Row | Compound | antibody targeting to Ep-CAM positive tumours [1] | Ep-CAM antigen expression [2] | cells in S and G2/M phases combined [3] | cells arrested in S or G2/M cycle phase [4] | increase in antibody binding (PANOREX) [5]
1 | CCC1=C[C@@H]2CN(C1)Cc1c([nH]c3ccccc13)[C@@](C(=O)OC)(c1cc3c(cc1OC)N(C)[C@H]1[C@@](O)(C(=O)OC)[C@H](OC(C)=O)[C@]4(CC)C=CCN5CC[C@]31[C@@H]54)C2 (relative stereo) [NAVELBINE®, 3′,4′-didehydro-4′-deoxy-C′-norvincaleukoblastine [R-(R*,R*)-2,3-dihydroxybutanedioate (1:2)(salt)]] | increases antibody targeting |  |  |  | 
2 | O=c1[nH]cc(F)c(=O)[nH]1 [5FU, 5-Fluorouracil] |  | not significantly increased | 7.9% |  | 
3 | CC(=O)O[C@H]1C(=O)[C@@]2(C)[C@H]([C@H](OC(=O)c3ccccc3)[C@]3(O)C[C@H](OC(=O)[C@H](O)[C@@H](NC(=O)c4ccccc4)c4ccccc4)C(C)=C1C3(C)C)[C@]1(OC(C)=O)CO[C@@H]1C[C@@H]2O [TAXOL®, 5β,20 epoxy-1,2α,4,7β,10β,13α-hexahydroxytax-11-en-9-one 4,10-diacetate 2-benzoate 13-ester with (2R,3S)-N-benzoyl-3-phenylisoserine] |  |  |  | 57% | 8%
4 | IFN-α |  | not significantly increased | 12% |  | 
5 | IFN-γ: interferon-gamma, used at 100 U/ml |  | not significantly increased | 11.5% |  | 
